Experimental data reported in PubChem BioAssay AID328 (DTP/NCI, 2004).
Values joined by “and” are separate entries in the source; they are usually repeats but may differ in a detail not shown here. Identical values can stand only once. Toxic doses and inconclusive results are not listed.

Tested on: BDF1 mice, P388 leukemia ip, median survival T/C
Experiment: NCI In Vivo Anticancer Drug Screen. Data for tumor model P388 Leukemia (intraperitoneal) in B6D2F1 (BDF1) mice
Settings: endpoint: median survival time, higher = longer survival
Summary of the method: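 Reported as T/C, where T is the survival measurement in dosed animals and C the same measurement in vehicle controls.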

[1] = dose: 12.5 mg/kg/injection, schedule: Q01DX009 (ip), vehicle: saline
[2] = dose: 25.0 mg/kg/injection, schedule: Q01DX009 (ip), vehicle: saline
[3] = dose: 50.0 mg/kg/injection, schedule: Q01DX009 (ip), vehicle: saline
[4] = dose: 400.0 mg/kg/injection, schedule: Q01DX009 (ip), vehicle: saline with Tween-80
[5] = dose: 200.0 mg/kg/injection, schedule: Q01DX010 (ip), vehicle: saline
[6] = dose: 400.0 mg/kg/injection, schedule: Q01DX010 (ip), vehicle: saline
[7] = dose: 25.0 mg/kg/injection, schedule: Q01DX009 (ip), vehicle: saline with Tween-80
[8] = dose: 50.0 mg/kg/injection, schedule: Q01DX009 (ip), vehicle: saline with Tween-80
[9] = dose: 100.0 mg/kg/injection, schedule: Q04DX003 (ip), vehicle: saline with Tween-80
[10] = dose: 200.0 mg/kg/injection, schedule: Q04DX003 (ip), vehicle: saline with Tween-80
[11] = dose: 400.0 mg/kg/injection, schedule: Q04DX003 (ip), vehicle: saline with Tween-80
[12] = dose: 50.0 mg/kg/injection, schedule: Q04DX003 (ip), vehicle: saline with Tween-80
[13] = dose: 100.0 mg/kg/injection, schedule: Q01DX009 (ip), vehicle: saline with Tween-80
[14] = dose: 200.0 mg/kg/injection, schedule: Q01DX009 (ip), vehicle: saline with Tween-80

In the case of C#CC(=O)C1OC2OC(C)(C)OC2C2OC(C)(C)OC12 (configuration not stated), the T/C (dose: 3.12 mg/kg/injection, schedule: Q01DX005 (ip), vehicle: saline with Tween-80) was 100 % of control, the T/C (dose: 6.25 mg/kg/injection, schedule: Q01DX005 (ip), vehicle: saline with Tween-80) was 107 % of control and the T/C (dose: 12.5 mg/kg/injection, schedule: Q01DX005 (ip), vehicle: saline with Tween-80) was 107 % of control.
CCc1ccc(C(=O)NN)cc1 was tested, and the T/C (dose: 6.25 mg/kg/injection, schedule: Q01DX009 (ip), vehicle: saline) was 100 % of control, the T/C [1] was 97 % of control and the T/C [2] was 103 % of control. For the same compound, the T/C (dose: 25.0 mg/kg/injection, schedule: Q04DX003 (ip), vehicle: saline) was 94 % of control, the T/C [3] was 100 % of control and the T/C (dose: 50.0 mg/kg/injection, schedule: Q04DX003 (ip), vehicle: saline) was 92 % of control. For the same compound, the T/C (dose: 100.0 mg/kg/injection, schedule: Q01DX009 (ip), vehicle: saline) was 124 % of control, the T/C (dose: 100.0 mg/kg/injection, schedule: Q04DX003 (ip), vehicle: saline) was 94 % of control and the T/C (dose: 200.0 mg/kg/injection, schedule: Q01DX009 (ip), vehicle: saline) was 90 % of control. The T/C (dose: 200.0 mg/kg/injection, schedule: Q04DX003 (ip), vehicle: saline) was 94 % of control.
In the case of Nc1ccc(OC(=O)Oc2ccc(N)cc2)cc1, the T/C (dose: 264.0 mg/kg/injection, schedule: Q01DX009 (ip), vehicle: saline with Tween-80) was 100 % of control and the T/C [4] was 104 % of control.
For O=c1cnn(C2OC(CO)C(O)C2O)c(=O)[nH]1 (configuration not stated), the T/C (dose: 12.5 mg/kg/injection, schedule: Q01DX009 (ip), vehicle: Klucel (hydroxypropylcellulose) (HPC)) was 108 % of control and 115 % of control, the T/C (dose: 25.0 mg/kg/injection, schedule: Q01DX009 (ip), vehicle: Klucel (hydroxypropylcellulose) (HPC)) was 123 % of control and the T/C (dose: 75.0 mg/kg/injection, schedule: Q01DX009 (ip), vehicle: Klucel (hydroxypropylcellulose) (HPC)) was 112 % of control. For the same compound, the T/C (dose: 150.0 mg/kg/injection, schedule: Q01DX009 (ip), vehicle: Klucel (hydroxypropylcellulose) (HPC)) was 106 % of control, the T/C (dose: 180.0 mg/kg/injection, schedule: Q01DX009 (ip), vehicle: saline) was 111 % of control and the T/C [5] was 116 % of control and 122 % of control. For the same compound, the T/C (dose: 268.0 mg/kg/injection, schedule: Q01DX009 (ip), vehicle: saline) was 111 % of control, the T/C (dose: 300.0 mg/kg/injection, schedule: Q01DX009 (ip), vehicle: Klucel (hydroxypropylcellulose) (HPC)) was 106 % of control and the T/C (dose: 400.0 mg/kg/injection, schedule: Q01DX009 (ip), vehicle: saline) was 117 % of control. For the same compound, the T/C [6] was 154 % of control, the T/C (dose: 600.0 mg/kg/injection, schedule: Q01DX009 (ip), vehicle: saline) was 109 % of control and the T/C (dose: 1200.0 mg/kg/injection, schedule: Q01DX009 (ip), vehicle: Klucel (hydroxypropylcellulose) (HPC)) was 91 % of control. For the same compound, the T/C (dose: 1600.0 mg/kg/injection, schedule: Q01DX010 (ip), vehicle: saline) was 100 % of control.
With NC1CSSC1 the T/C (dose: 0.39 mg/kg/injection, schedule: Q01DX009 (ip), vehicle: water) was 93 % of control and 108 % of control, the T/C (dose: 1.56 mg/kg/injection, schedule: Q04DX003 (ip), vehicle: water) was 97 % of control and the T/C (dose: 3.12 mg/kg/injection, schedule: Q04DX003 (ip), vehicle: water) was 106 % of control. For the same compound, the T/C (dose: 6.25 mg/kg/injection, schedule: Q01DX009 (ip), vehicle: water) was 91 % of control and 94 % of control and 96 % of control and the T/C (dose: 6.25 mg/kg/injection, schedule: Q04DX003 (ip), vehicle: water) was 105 % of control.
With CN[C@H]1CCc2cc(OC)c(OC)c(OC)c2-c2ccc(OC)c(=O)cc21 the T/C (dose: 0.63 mg/kg/injection, schedule: Q01DX010 (ip), vehicle: saline) was 104 % of control, the T/C (dose: 1.25 mg/kg/injection, schedule: Q01DX009 (ip), vehicle: saline) was 117 % of control and the T/C (dose: 1.25 mg/kg/injection, schedule: Q01DX010 (ip), vehicle: saline) was 122 % of control. For the same compound, the T/C (dose: 2.5 mg/kg/injection, schedule: Q01DX010 (ip), vehicle: saline) was 122 % of control, the T/C (dose: 5.0 mg/kg/injection, schedule: Q01DX010 (ip), vehicle: saline) was 150 % of control and the T/C (dose: 10.0 mg/kg/injection, schedule: Q01DX009 (ip), vehicle: saline) was 93 % of control.
In the case of Cc1cc(NC(=O)NCCOc2ccc(N3C(N)=NC(N)=NC3(C)C)cc2Cl)ccc1S(=O)(=O)F, the T/C [1] was 100 % of control, the T/C [2] was 113 % of control and the T/C [3] was 122 % of control.
With O=C(CSCC(=O)c1ccc(Br)cc1)c1ccc(Br)cc1 the T/C (dose: 100.0 mg/kg/injection, schedule: Q01DX001 (ip), vehicle: Klucel (hydroxypropylcellulose) (HPC)) was 100 % of control, the T/C (dose: 200.0 mg/kg/injection, schedule: Q01DX001 (ip), vehicle: Klucel (hydroxypropylcellulose) (HPC)) was 100 % of control and the T/C (dose: 400.0 mg/kg/injection, schedule: Q01DX001 (ip), vehicle: Klucel (hydroxypropylcellulose) (HPC)) was 100 % of control.
In the case of CO[C@H]1CC[C@@]2(C)C(=CC[C@H]3[C@@H]4C[C@H](O)C[C@@]4(C)CC[C@@H]32)C1, the T/C (dose: 12.5 mg/kg/injection, schedule: Q01DX010 (ip), vehicle: other) was 105 % of control and the T/C (dose: 25.0 mg/kg/injection, schedule: Q01DX010 (ip), vehicle: other) was 90 % of control and 120 % of control.
For O=C1NC(=O)C(c2ccc(C(F)(F)F)cc2)(c2ccc(C(F)(F)F)cc2)N1, the T/C (dose: 12.5 mg/kg/injection, schedule: Q01DX009 (ip), vehicle: saline with Tween-80) was 104 % of control, the T/C [7] was 90 % of control and the T/C [8] was 113 % of control. The T/C [9] was 90 % of control, the T/C [10] was 90 % of control and the T/C [11] was 104 % of control.
With COc1cc2nccc3c4ccccc4n(c1=O)c23 the T/C (dose: 100.0 mg/kg/injection, schedule: Q01DX010 (ip), vehicle: saline) was 90 % of control, the T/C [5] was 90 % of control and the T/C [6] was 95 % of control. For the same compound, the T/C (dose: 800.0 mg/kg/injection, schedule: Q01DX010 (ip), vehicle: saline) was 100 % of control.
With CC(=O)Nc1ccc2c(c1)C[N+](C)(C1CCCCC1)CO2 (configuration not stated) the T/C [7] was 109 % of control, the T/C (dose: 25.0 mg/kg/injection, schedule: Q04DX003 (ip), vehicle: saline with Tween-80) was 95 % of control and the T/C [8] was 109 % of control. For the same compound, the T/C [12] was 91 % of control and the T/C [9] was 95 % of control.
In the case of CCOC(=O)c1c[nH]c2ccccc2c1=O, the T/C (dose: 100.0 mg/kg/injection, schedule: Q04DX002 (ip), vehicle: saline) was 107 % of control, the T/C (dose: 200.0 mg/kg/injection, schedule: Q04DX002 (ip), vehicle: saline) was 111 % of control and the T/C (dose: 400.0 mg/kg/injection, schedule: Q04DX002 (ip), vehicle: saline) was 102 % of control.
Cc1ccc(-n2c(O)c(C=N)c(=O)[nH]c2=O)cc1 was tested, and the T/C [8] was 86 % of control, the T/C [13] was 86 % of control and the T/C [14] was 113 % of control.
In the case of CCOC(=O)c1c(N)[nH]c(SSc2[nH]c(N)c(C(=O)OCC)c2C(=O)OCC)c1C(=O)OCC, the T/C [7] was 92 % of control, the T/C [8] was 108 % of control and the T/C [12] was 109 % of control. The T/C [9] was 109 % of control, the T/C [10] was 114 % of control and the T/C [11] was 109 % of control.
For Cc1ccc(C(=O)NCCCOc2ccc([N+](=O)[O-])cc2Cl)cc1S(=O)(=O)F, the T/C [8] was 98 % of control, the T/C [13] was 114 % of control and the T/C [9] was 99 % of control. The T/C [14] was 98 % of control, the T/C [10] was 99 % of control and the T/C [4] was 107 % of control. The T/C [11] was 90 % of control.
In the case of Cc1ccccc1C(O)c1ccccc1Cl (configuration not stated), the T/C (dose: 100.0 mg/kg/injection, schedule: Q01DX001 (ip), vehicle: saline sonified) was 100 % of control, the T/C (dose: 200.0 mg/kg/injection, schedule: Q01DX001 (ip), vehicle: saline sonified) was 100 % of control and the T/C (dose: 400.0 mg/kg/injection, schedule: Q01DX001 (ip), vehicle: saline sonified) was 100 % of control.
In the case of CC[C@](C)(O)C(=O)O[C@H]1C(=O)O[C@@H]2C[C@H]3C(C)=C[C@H](O)[C@@H](O)[C@]3(C)[C@H]3[C@@]4(O)OC[C@]32[C@@H]1[C@@H](C)[C@H]4O, the T/C (dose: 1.0 mg/kg/injection, schedule: Q01DX010 (ip), vehicle: other) was 113 % of control and the T/C (dose: 4.0 mg/kg/injection, schedule: Q01DX010 (ip), vehicle: other) was 113 % of control.
For S=c1cc(-c2ccccc2)ss1, the T/C [9] was 110 % of control and 101 % of control, the T/C [10] was 115 % of control and 101 % of control and the T/C [11] was 108 % of control.
In the case of CC1(C)CCCC(C(Cc2ccc3ccccc3n2)c2ccccc2)C1=O (configuration not stated), the T/C (dose: 100.0 mg/kg/injection, schedule: Q01DX001 (ip), vehicle: saline with Tween-80) was 98 % of control, the T/C (dose: 200.0 mg/kg/injection, schedule: Q01DX001 (ip), vehicle: saline with Tween-80) was 96 % of control and the T/C (dose: 400.0 mg/kg/injection, schedule: Q01DX001 (ip), vehicle: saline with Tween-80) was 88 % of control.
